Results as given in paper PMC11546786, “Designing Analogs of SAAP-148 with Enhanced Antimicrobial and Anti-LPS Activities” (International Journal of Molecular Sciences, 2024).
Ends that are not written are not given here.

Tests used:
human erythrocytes = assay: Haemolytic activity; assay type: cell-based
Procedure: The haemolytic activity of the peptides was evaluated using a standard procedure with minor adjustments. Fresh human erythrocytes were washed thrice and subsequently resuspended at 1.25% haematocrit in PBS. Forty microlitres PBS-diluted peptide solution was added to a 96-well plate (Corning Inc., Lowell, MA, USA), and 160 μL of erythrocytes was added. After incubation at 37 °C for 30 min, the samples were centrifuged, and the absorbance of the supernatant was measured at 450 nm using a multi-well microplate reader (SpectraMax M5; Molecular Devices, Sunnyvale, CA, USA) and compared with the 100% haemolysis caused by 0.1% Triton X-100. The percentage of haemolysis was calculated according to the equation: Haemolysis%=Asample−Ablank/Atriton−Ablank×100

[1] = Reversed-phase HPLC retention time as measure of peptide hydrophobicity; assay type: physicochemical; conditions: retention time by reverse-phase HPLC, reflects hydrophobicity difference between analogues
Source text: The physicochemical parameters crucial for the antimicrobial activity of AMPs have been identified, encompassing net charge, helicity, hydrophobicity, and amphipathicity. The hydropathicity, mean relative hydrophobic moment, and charge of peptides were predicted using the HeliQuest (https://heliquest.ipmc.cnrs.fr/ (accessed on 12 March 2024)). Lysine is a hydrophilic amino acid, and its substitution leads to a decrease in the hydrophobicity of the SAAP-148 analogue. The anticipated results are consistent, with the degree of reduction in […] varying depending on the position at which lysine is substituted (Table 2). The amphipathicity of the peptides, as denoted by the μH (mean relative hydrophobic moment), is elaborated on in Table 2. The hydrophobic moment of SAAP-148 analogues was decreased except for SAAP-10, which is on account of the substitution occurring on the18th residue. (Figure 1) The 18th residue of SAAP-148 is glutamine, a polar amino acid residue, located at the junction of the hydrophobic and hydrophilic surfaces of the SAAP-148 α-helix. […] The retention time data determined by reversed-phase high-performance liquid chromatography (RP-HPLC) reflects the hydrophobicity difference between peptide analogues. It is well documented that the formation of a hydrophobic-binding domain due to peptide secondary structure can affect peptide interactions with reversed-phase matrices. This effect was observed particularly for amphipathic α-helical peptides. Given this preferred binding domain, amphipathic α-helical peptides are considerably more retentive than non-amphipathic peptides with the same amino acid composition.
This phenomenon was particularly evident in the case of amphipathic α-helical peptides. […] This discrepancy may be attributed to the lack of a well-defined α-helical structure in SAAP-148 and its analogues (Figure S1).

[2] = tested on: human erythrocytes versus five bacterial strains; assay: Therapeutic index (MHC/GM of MIC); conditions: for Fold (TI of analogue compared with SAAP-148): TI change relative to SAAP-148; for TI (MHC/MIC): ratio of MHC to geometric mean of MIC (five strains)
Procedure: The geometric mean of minimum inhibitory concentration (MIC) values (GM) from the five strains was calculated to provide a comprehensive assessment of antimicrobial activity, as presented in Table 4.
The therapeutic index (TI) is a widely utilized parameter for indicating the specificity of antimicrobial agents, which is determined by the ratio of MHC (hemolytic activity) and MIC (antimicrobial activity). Consequently, larger TI values signify greater antimicrobial specificity. The TI can be enhanced through one of three mechanisms: increasing antimicrobial activity, reducing hemolytic activity while maintaining antimicrobial activity, or a combination of both augmenting antimicrobial activity and diminishing hemolytic activity.

[3] = CD spectra, secondary structure by BeStSel; assay type: physicochemical; conditions: 30 μM SDS as printed, 100 μM peptide, 25 °C
Procedure: CD spectra (Figure S1) were acquired using a JASCO J-1500 spectropolarimeter (JASCO Inc., Easton, MD, USA) in 0.1 cm pathlength cells under nitrogen at 25 °C. The spectra were recorded in the range of 190 to 250 nm at a peptide concentration of 100 μM in SDS. Secondary structure was determined using the BeStSel server. Hydropathicity, mean relative hydrophobic moment, and charge of peptides were predicted using the HeliQuest (https://heliquest.ipmc.cnrs.fr/ (accessed on 12 March 2024)). The 3D structure of SAAP-148 and its analogues (Figure S2) was predicted using PEP-FOLD4 servers (https://bioserv.rpbs.univ-paris-diderot.fr/services/PEP-FOLD4/ (accessed on 19 June 2024)).

[4] = tested on: Gram-positive bacteria (S. aureus, S. epidermidis); assay: Geometric mean of MICs against Gram-positive bacteria; assay type: cell-based; set-up: unit not given here
Procedure: (§1) The antibacterial activities of the peptides against […] were evaluated using a modified version of the Clinical Laboratory and Standards Institute (CLSI) broth microdilution method, as previously described. Briefly, the bacteria were cultured in liquid LB medium (comprising 10 g/L tryptone, 5 g/L yeast extract, and 10 g/L NaCl) at 37 °C until reaching mid-log phase. Subsequently, the bacterial concentration was adjusted to 1 × 10^6 colony-forming units (CFU)/mL. The peptides were then diluted serially with phosphate-buffered saline (PBS), followed by the addition of 50 μL of the diluted peptides to 50 μL of the bacterial suspension in a 96-well plate (Corning Inc., Lowell, MA, USA). After incubating at 37 °C for 18 to 20 h, the absorbance of each well was measured using a multi-well microplate reader (SpectraMax M5; Molecular Devices, Sunnyvale, CA, USA) at 600 nm.

five bacterial strains = assay: MICs against all five bacterial strains (geometric mean, range); assay type: cell-based; set-up: unit not given here; conditions: geometric mean of MICs against all five bacterial strains
Procedure: as §1

[5] = tested on: Klebsiella pneumonia (1.1736); assay type: cell-based, Klebsiella pneumoniae
Source text: (§2) The LL-37, SAAP-148 and its analogues peptides were synthesized according to the standard Fmoc procedure. The Fmoc-protected resin and monomers are first treated with a basic solvent (piperidine) to remove the amino protecting groups. The carboxyl group of the next amino acid is activated by an activator. The activated monomer reacts with the free amino group to form a peptide bond. These two steps are repeated in a cycle until the synthesis is complete. After synthesis, the peptide is eluted from the column and purified by reverse-phase semipreparative high-performance liquid chromatography as detailed in Table 1. The peptides were dissolved in PBS to create a 1000 μmol/L stock solution for subsequent use. The purity of the synthetic peptide exceeded 95%. Blood samples from healthy donors were obtained from the Fifth Medical Center of Chinese PLA General Hospital (Beijing, China). Human normal lung epithelial cells (BEAS-2B) and mouse mononuclear macrophages cells (RAW 264.7) were sourced from Beyotime Biotechnology (Beijing, China), along with the Enhanced Cell Counting Kit-8 (CCK-8) and nitric oxide detection kit. RPMI-1640 and DMEM were procured from Merck (Darmstadt, Germany), while FBS was obtained from ExCell Bio (Shanghai, China). LPS-B5 (from E. coli 055:B5) was procured from Invivogen (Toulouse, France). Five bacterial strains, including Escherichia coli (1.8732), Pseudomonas aeruginosa (1.2421), Klebsiella pneumonia (1.1736) as Gram-negative bacteria, and Staphylococcus aureus (1.8721) and Staphylococcus epidermidis (1.4260) as Gram-positive bacteria, were procured from the China General Microbiological Culture Collection Centre (CGMCC) (Beijing, China).
as §1

[6] = tested on: Staphylococcus aureus (1.8721); assay type: cell-based
Source text: as §2, §1

[7] = tested on: Pseudomonas aeruginosa (1.2421); assay type: cell-based
Source text: as §2, §1

[8] = tested on: Staphylococcus epidermidis (1.4260); assay type: cell-based
Source text: as §2, §1

[9] = tested on: Escherichia coli (1.8732); assay type: cell-based
Source text: as §2, §1

[10] = tested on: Gram-negative bacteria (E. coli, P. aeruginosa, K. pneumoniae); assay: Geometric mean of MICs against Gram-negative bacteria; assay type: cell-based; set-up: unit not given here
Procedure: as §1

[11] = tested on: LPS-induced NO in RAW264.7 macrophages; assay: Inhibition of LPS-induced NO production, Griess assay; assay type: cell-based, mouse; conditions: 6.25 μM peptide, LPS 100 ng/mL, 24 h, Griess assay (Figure 4)
Source text: LL-37 is a promising peptide for the regulation of inflammation and mitigation of endotoxin impact due to its ability to directly bind to LPS and counteract its biological effects, such as the inhibition of interleukin-6 (IL-6), interleukin 1β (IL-1β), and LPS-induced nitric oxide (NO). We conducted a series of experiments to assess the effectiveness of SAAP-148 and its analogues in reducing NO production by mouse mononuclear pacrophages cells (RAW264.7) after LPS stimulation. […] Subsequently, we employed a Griess assay to evaluate the levels of nitrite in RAW264.7 cells following treatment with SAAP-148 and its analogues, both with and without LPS treatment.
RAW264.7 cells were cultured in DMEM supplemented with 10% (v/v) FBS, 2 mM L-glutamine, 100 U/mL penicillin, and […] streptomycin, and maintained in a humidified incubator with 5% CO2 at 37 °C. Subsequently, RAW264.7 cells (1.5 × 10^4 cells/well) were seeded in 96-well plates (Corning Inc., Lowell, MA, USA) and incubated overnight. […] After incubation for 24 h, the culture supernatant was collected, and NO assay was performed according the instruction. The absorbance of the sample was measured at 550 nm.

| Substance | haemolytic activity compared with SAAP-148 (human erythrocytes) | Rt [1] | Fold (TI of analogue compared with SAAP-148) [2] | TI (MHC/MIC) [2] | Others [3] | Turn [3] | α-Helix [3] | β-Antiparallel [3] | β-Parallel [3] | GM to G+ [4] | MIC (GM) (five bacterial strains) | MIC K. pneumoniae [5] | MIC S. aureus [6] | MIC P. aeruginosa [7] | MIC S. epidermidis [8] | MIC E. coli [9] | GM to G− [10] | fold increase of MHC over that of SAAP-148 (human erythrocytes) | NO inhibition ability [11] |
| --- | --- | --- | --- | --- | --- | --- | --- | --- | --- | --- | --- | --- | --- | --- | --- | --- | --- | --- | --- |
| LKRKWKRVFKLLKRYWRQLKKPVR-NH2 [SAAP-2] | comparable hemolytic activity to SAAP-148 | 12.532 min | 1 | 0.11 | 0% | 0% | 93.5% | 6.5% | 0% | 12.51 | 7.18 | 12.50 µM | 50.00 µM | 3.13 µM | 3.13 µM | 3.13 µM | 4.97 | – | – |
| LKRVWKRKFKLLKRYWRQLKKPVR-NH2 [SAAP-4] | – | 9.96 min | 83.55 | 9.19 | 3.6% | 0% | 50.9% | 45.5% | 0% | 17.69 | 10.88 | 100.00 µM | 100.00 µM | 3.13 µM | 3.13 µM | 1.56 µM | 7.87 | 133.33 fold | – |
| LKRVWKRVFKLLKRYWRKLKKPVR-NH2 [SAAP-10] | comparable hemolytic activity to SAAP-148 | 13.69 min | 0.64 | 0.07 | 0% | 0% | 100% | 0% | 0% | 12.51 | 10.88 | 25.00 µM | 50.00 µM | 6.25 µM | 3.13 µM | 6.25 µM | 9.92 | – | – |
| LKRVWKRVFKLLKRYWRQLKKKVR-NH2 [SAAP-12] | comparable hemolytic activity to SAAP-148 | 16.604 min | 0.36 | 0.04 | 0% | 0% | 100% | 0% | 0% | 12.5 | 18.95 | 100.00 µM | 25.00 µM | 12.50 µM | 6.25 µM | 12.50 µM | 25 | – | – |
| LKRVWKRVFKLLKRYWRQLKKPVR-NH2 [SAAP-148] | – | 12.416 min | – | 0.11 | 0% | 0% | 93.5% | 6.5% | 0% | 12.51 | 7.18 | 6.25 µM | 50.00 µM | 3.13 µM | 3.13 µM | 6.25 µM | 4.96 | – | comparable efficacy to LL-37 |
